The results in this text go back to ChEMBL document CHEMBL2016573, “Fluorescent nucleosides with 'on-off' switching function, pH-responsive fluorescent uridine derivatives” (Bioorg Med Chem Lett, 2012).

Molecules are shown by their SMILES.

Data set [1] can be described thus: Dissociation constant, pKa of the compound at pH < 5. The format is physicochemical.
For the next data set, the system named is Huh-7. The data set can be described thus: Cellular uptake in human HuH7 cells at 1 uM after 2 hrs by fluorescence microscopic analysis. The settings on record: huh-7, 2 h. The format is ADME, cell-based.
The nature of data set [2]: Dissociation constant, pKa of the compound at pH 4.8 to 8.2. The format is physicochemical.
Data set [3] in a line: Drug uptake in human HuH7 cells assessed as localization in cytosol at 1 uM after 2 hrs by fluorescence microscopic analysis. The format is ADME, cell-based, Huh-7.

Regarding `Nc1ccc(C#Cc2c3ccccc3c(C#Cc3cn([C@H]4C[C@H](O)[C@@H](CO)O4)c(=O)[nH]c3=O)c3ccccc23)cc1`, the pKa in data set [1] turned out to be 3.9. As to `CNc1ccc(C#Cc2c3ccccc3c(C#Cc3cn([C@H]4C[C@H](O)[C@@H](CO)O4)c(=O)[nH]c3=O)c3ccccc23)cc1`, the pKa in data set [1] turned out to be 3.7. Moreover, in the data set on Huh-7, the Drug uptake entry is recorded as “Not Active”. `CCC(CC)Nc1ccc(C#Cc2c3ccccc3c(C#Cc3cn([C@H]4C[C@H](O)[C@@H](CO)O4)c(=O)[nH]c3=O)c3ccccc23)cc1`: in data set [1], the pKa amounted to 3.7. On the same count and under the same terms, for `O=c1[nH]c(=O)n([C@H]2C[C@H](O)[C@@H](CO)O2)cc1C#Cc1c2ccccc2c(C#Cc2ccc(NC3CCCCC3)cc2)c2ccccc12` the value was 3.9; for `CCCCNc1ccc(C#Cc2c3ccccc3c(C#Cc3cn([C@H]4C[C@H](O)[C@@H](CO)O4)c(=O)[nH]c3=O)c3ccccc23)cc1`, 3.5. Turning to `CC(C)(C)Nc1ccc(C#Cc2c3ccccc3c(C#Cc3cn([C@H]4C[C@H](O)[C@@H](CO)O4)c(=O)[nH]c3=O)c3ccccc23)cc1`, the pKa in data set [1] and in data set [2] was 6.1 each time. Also, the Drug uptake result in data set [3] was “Active”. Compound `CN(C)c1ccc(C#Cc2c3ccccc3c(C#Cc3cn([C@H]4C[C@H](O)[C@@H](CO)O4)c(=O)[nH]c3=O)c3ccccc23)cc1` displayed a pKa in data set [1] of 3.

The term pKa denotes the pH at which an ionisable group is half protonated.
